Experimental data reported in US20170190744A1 (Vicuron Pharmaceuticals, Inc., priority 2015, published 2017).
Values after ≈ are worked out from the molar mass of the structure shown. Values joined by “and” are separate entries in the source; they are usually repeats but may differ in a detail not shown here. Identical values can stand only once. Like-named read-outs stand apart in the source and are kept apart here.

Key:
[1] = test system: gram positive bacteria; assay: MIC by broth microdilution (NCCLS), with or without 30% bovine serum (Example 19); format: cell-based
Description: (§1) The compounds were prepared according to the examples above and the methods described in U.S. Patent Application Publication No. 2004/0142883. Individual dalbavancin compounds were purified by HPLC. […] Before dissolution, each sample was analyzed by HPLC and quantified. […] Louis, Mo.), Gentamycin (GE) (Sigma Chemical Co., St. Louis, Mo.), Penicillin G (Pen.G) (Sigma Chemical Co., St. Louis, Mo.), and Amphotericin B (Amph.B) (Sigma Chemical Co., St. Louis, Mo.). The microorganisms used were reference strains obtained from the American Type Culture Collection (ATCC) (Rockville, Md.), SmithKline and French Laboratories (SKF), and the Upjohn Company (UC) (Kalamazoo, Mich.).

[2] = test system: gram-negative bacteria; assay: as above; format: cell-based
Description: as §1

[3] = test system: Candida albicans SKF 2270; assay: as above; format: cell-based; settings: SKF2270
Description: MICs were determined by the broth microdilution methodology following the standard NCCLS procedure (NCCLS Document M7-A6, Vol. 23, No. 2, “Methods for dilution antimicrobial susceptibility tests for bacteria that grow aerobically.” Approved Guideline. January 2003, which can be herein incorporated by reference in its entirety), with or without 30% adult bovine serum (BS) (PAA Laboratories GmBH, Haidmannweg Pasching Austria), using bacterial innocula at approximately 5×10^5 CFU/ml. The media employed included cation-adjusted Müller Hinton broth (Difco Laboratories, Detroit, Mich.) that was used that was adjusted with CaCl2 and MgCl2 to a final concentration of 20 mg/L and 10 mg/L, respectively. Tests were read following 20-24 hours of incubation at 35° C.

[4] = test system: gram-positive bacteria; assay: MIC by broth microdilution (NCCLS), IsoB0 and reference compounds; format: cell-based
Description: Müller Hinton broth (Difco Laboratories, Detroit, Mich., USA) adjusted with CaCl2 and MgCl2 to a final concentrations of 20 mg/L and 10 mg/L respectively.
Adult bovine serum (BS) (batch A05123-159 PAA Laboratories GmBH Haidmannweg Pasching Austria).
The microorganisms used are reference standard strains from the American Type Culture Collection (ATCC, Rockville, USA), Smith Kline and French Laboratories (SKF) and the Upjohn Company (UC, Kalamazoo, Mich., USA).
(§2) MICs were determined by the broth microdilution methodology following the standard NCCLS procedure, with or without 30% bovine serum, using bacterial inocula of approximately 5×10^5 CFU/mL. Tests were read after 20-24 h incubation at 35° C.

[5] = In vivo biological activity of IsoB0
[6] = test system: gram-negative bacteria; assay: MIC by broth microdilution (NCCLS), IsoB0 and reference compounds; format: cell-based
Description: as §2

[7] = test system: Candida albicans SKF2270; assay: as above; format: cell-based
[8] = test system: S. aureus; assay: MIC of study organisms (NCCLS microdilution); format: cell-based; settings: Staphylococcus aureus
Description: (§3) MICs were determined in MHB by standard NCCLS microdilution techniques. […] All MICs were performed at least in duplicate.

[9] = design: species or system Sprague-Dawley rats; settings: rat, in vivo, iv, 20 mg/kg
Description: Mass balance studies were conducted to determine the excretion pattern of dalbavancin following a single intravenous (IV) infusion of dalbavancin in male rats. […] Water and methanol cage washes were also collected.

[10] = target: N,N′-diacetyl-Lys-D-Ala-D-Ala; assay: ITC, 37 °C, [HSA] 0 µM
[11] = target: human serum proteins; assay: cell-based or functional assay
[12] = target: N,N′-diacetyl-Lys-D-Ala-D-Ala; assay: ITC, 25 °C, free dalbavancin
[13] = target: N,N′-diacetyl-Lys-D-Ala-D-Ala; assay: ITC, 25 °C, apparent, 104 µM HSA present
[14] = target: N,N′-diacetyl-Lys-D-Ala-D-Ala; assay: ITC, 25 °C, apparent, 288 µM HSA present
[15] = target: N,N′-diacetyl-Lys-D-Ala-D-Ala; assay: ITC, 25 °C, apparent, 430 µM HSA present
[16] = target: N,N′-diacetyl-Lys-D-Ala-D-Ala; assay: ITC, 25 °C, apparent, 601 µM HSA present
[17] = target: N,N′-diacetyl-Lys-D-Ala-D-Ala; assay: ITC, 37 °C, apparent, 482 µM HSA present
[18] = test system: S. pneumoniae; assay: MIC of study organisms (NCCLS microdilution); format: cell-based; settings: S. pneumoniae strain 10813
Description: as §3

[19] = target: N,N′-diacetyl-Lys-D-Ala-D-Ala; assay: ITC, 10 °C, [HSA] 0 µM
[20] = target: N,N′-diacetyl-Lys-D-Ala-D-Ala; assay: ITC, 25 °C, [HSA] 0 µM
[21] = target: N,N′-diacetyl-Lys-D-Ala-D-Ala; assay: ITC, 25 °C, 513 µM HSA present
[22] = E. faecalis ATCC29212 ref. strain
[23] = Enterococcus faecalis, ATCC7080
[24] = S. aureus ATCC29213 ref. strain
[25] = Staphylococcus aureus Smith ATCC19636
[26] = Pseudomonas aeruginosas ATCC 10145

CNC1C(=O)NC2Cc3ccc(c(Cl)c3)Oc3cc4cc(c3OC3OC(C(=O)O)C(O)C(O)C3NC(=O)CCCCCCCCC(C)C)Oc3ccc(cc3Cl)C(O)C3NC(=O)C(NC(=O)C4NC(=O)C(NC2=O)c2cc(O)cc(c2)Oc2cc1ccc2O)c1ccc(O)c(c1)-c1c(OC2OC(CO)C(O)C(O)C2O)cc(O)cc1C(C(=O)NCCCN(C)C)NC3=O [Composition B0, ristomycin A aglycone, 5,31-dichloro-38-de(methoxycarbonyl)-7-demethyl-19-deoxy-56-O-(2-deoxy-2-((10-methyl-1-oxoundecyl)amino)-beta-D-glucopyranuronosyl)-38-(((3-(dimethylamino)propyl)amino)-carbonyl)-42-O-alpha-D-mannopyranosyl-N^15-methyl-]
MIC ([1]; Bacillus subtilis ATCC6633): ≦0.06 mg/L | MIC [1, 22]: 0.125 µg/mL (≈ 0.0688 µM) | MIC [1, 23]: 0.125 µg/mL (≈ 0.0688 µM) | MIC [1, 24]: 0.125 µg/mL (≈ 0.0688 µM) | MIC ([1]; S. aureus Smith + 30% BS): 2 µg/mL | MIC ([1]; S. epidermidis ATCC12228): ≦0.06 mg/L | MIC ([1]; S. pneumoniae Felton UC41): ≦0.06 mg/L | MIC [1, 25]: 0.25 µg/mL (≈ 0.138 µM) | MIC ([1]; Streptococcus pyrogenes SKF 13400): ≦0.06 mg/L | MIC ([2]; E. coli ATCC25922 ref. strain): >64 µg/mL | MIC ([2]; Escherichia coli SKF 12140): >64 µg/mL | MIC ([2]; Proteus vulgaris, ATCC881): >64 µg/mL | MIC [2, 26]: >64 µg/mL | MIC ([3]; Candida albicans): >64 µg/mL

CC(C)CCCCCCCCC(=O)N[C@H]1[C@H](Oc2c3cc4cc2Oc2ccc(cc2Cl)[C@@H](O)[C@@H]2NC(=O)[C@H](NC(=O)[C@@H]4NC(=O)[C@H]4NC(=O)[C@@H](Cc5ccc(cc5)O3)NC(=O)[C@H](N(C)C)c3ccc(O)c(c3)Oc3cc(O)c(Cl)c4c3)c3ccc(O)c(c3)-c3c(O[C@H]4O[C@H](CO)[C@@H](O)[C@H](O)[C@@H]4O)cc(O)cc3[C@@H](C(=O)NCCCN(C)C)NC2=O)O[C@H](C(=O)O)[C@@H](O)[C@@H]1O [Composition B2, N^15,N^15-dimethyl dalbavancin B0]
MIC ([1]; ATCC6633, Bacillus subtilis ATCC 6633, read-out: MIC): ≤ 0.03 µg/mL | MIC ([1]; ATCC7080, Enterococcus faecalis ATCC 7080, read-out: MIC): 0.06 µg/mL (≈ 0.0328 µM) | MIC ([1]; ATCC19636, Staphylococcus aureus Smith ATCC 19636, read-out: MIC): 0.125 µg/mL (≈ 0.0683 µM) | MIC ([1]; Enterococcus faecalis, E. faecalis ATCC29212 ref. strain, read-out: MIC): 0.125 µg/mL (≈ 0.0683 µM) | MIC ([1]; Staphylococcus aureus, ATCC29213, S. aureus ATCC 29213 ref. strain, read-out: MIC): 0.125 µg/mL (≈ 0.0683 µM) | MIC ([1]; Staphylococcus aureus, S. aureus Smith + 30% BS, read-out: MIC): 2 µg/mL | MIC ([1]; Staphylococcus epidermidis, ATCC12228, S. epidermidis ATCC 12228, read-out: MIC): ≤ 0.03 µg/mL | MIC ([1]; Streptococcus pneumoniae, S. pneumoniae Felton UC41, read-out: MIC): ≤ 0.03 µg/mL | MIC ([1]; Streptococcus pyrogenes SKF 13400, read-out: MIC): ≤ 0.03 µg/mL | MIC ([2]; ATCC881, Proteus vulgaris ATCC 881, read-out: MIC): 32 µg/mL (≈ 17.5 µM) | MIC ([2]; Escherichia coli SKF 12140, read-out: MIC): 32 µg/mL (≈ 17.5 µM) | MIC ([2]; Escherichia coli, E. coli ATCC25922 ref. strain, read-out: MIC): 32 µg/mL (≈ 17.5 µM) | MIC ([2]; Pseudomonas aeruginosas ATCC 10145, read-out: MIC): 16 µg/mL (≈ 8.74 µM) | MIC ([3]; Candida albicans SKF 2270, read-out: MIC): 32 µg/mL (≈ 17.5 µM)

CNC1C(=O)NC2Cc3ccc(cc3)Oc3cc4cc(c3OC3OC(C(=O)O)C(O)C(O)C3NC(=O)CCCCCCCCC(C)C)Oc3ccc(cc3Cl)C(O)C3NC(=O)C(NC(=O)C4NC(=O)C(NC2=O)c2cc(cc(O)c2Cl)Oc2cc1ccc2O)c1ccc(O)c(c1)-c1c(OC2OC(CO)C(O)C(O)C2O)cc(O)cc1C(C(=O)NCCCN(C)C)NC3=O (stereo not shown) [IsoB0]
MIC ([4]; Bacillus subtilis ATCC6633): ≦0.06 mg/L | MIC [4, 22]: 0.25 µg/mL (≈ 0.138 µM) | MIC [4, 23]: 0.25 µg/mL (≈ 0.138 µM) | MIC [4, 24]: 0.25 µg/mL (≈ 0.138 µM) | MIC ([4]; S. aureus Smith + 30% BS): 16 µg/mL | MIC ([4]; S. epidermidis ATCC12228): 0.125 µg/mL (≈ 0.0688 µM) | MIC ([4]; S. pneumoniae Felton UC41): 0.125 µg/mL (≈ 0.0688 µM) | MIC [4, 25]: 0.5 µg/mL (≈ 0.275 µM) | MIC ([4]; Streptococcus pyogenes SKF13400): 0.06 µg/mL (≈ 0.033 µM) | activity against a panel of gram-positive bacteria ([4]; compared with dalbavancin): very similar to dalbavancin | in vivo biological activity [5]: comparable to that of dalbavancin B0 | MIC ([6]; E. coli ATCC25922 ref. strain): 64 µg/mL (≈ 35.2 µM) | MIC ([6]; Escherichia coli SKF 12140): 64 µg/mL (≈ 35.2 µM) | MIC ([6]; Proteus vulgaris, ATCC881): >64 µg/mL | MIC [6, 26]: >64 µg/mL | MIC [7]: >64 µg/mL

COc1cccc(OC)c1C(=O)N[C@@H]1C(=O)N2[C@@H]1SC(C)(C)[C@@H]2C(=O)O [Methicillin]
MIC ([8]; MRSA, S. aureus strain MRSA): > 8 µg/mL | MIC ([8]; S. aureus strain 25923): 0.12 µg/mL | MIC ([8]; S. aureus strain 31005): 0.12 µg/mL | MIC ([8]; S. aureus strain 33591): > 8 µg/mL | MIC ([8]; S. aureus strain 307109): > 8 µg/mL | MIC ([8]; S. aureus strain Smith): 0.12 µg/mL

CN[C@H]1C(=O)N[C@@H]2Cc3ccc(cc3)Oc3cc4cc(c3O[C@@H]3O[C@H](C(=O)O)[C@@H](O)[C@H](O)[C@H]3NC(=O)CCCCCCCCC(C)C)Oc3ccc(cc3Cl)[C@@H](O)[C@@H]3NC(=O)[C@H](NC(=O)[C@@H]4NC(=O)[C@@H](NC2=O)c2cc(cc(O)c2Cl)Oc2cc1ccc2O)c1ccc(O)c(c1)-c1c(O[C@H]2O[C@H](CO)[C@@H](O)[C@H](O)[C@@H]2O)cc(O)cc1[C@@H](C(=O)NCCCN(C)C)NC3=O [^3H-dalbavancin]
fraction of excreted radioactivity eliminated in feces [9]: ⅓ | fraction of excreted radioactivity eliminated in urine [9]: ⅔

Dalbavancin (peptide)
N [10]: 0.82 | degree of binding estimated from MIC difference [11]: 96% | Kd [12]: 3000 nM | N [13]: 1.38 | N [14]: 0.9 | N [15]: 1.24 | N [16]: 0.86 | N [17]: 0.179

Penicillin
MIC [18]: 0.008 µg/mL

Vancomycin hydrochloride (peptide)
Ka [19]: 690000 M⁻¹ | N [19]: 1.1 | Ka [20]: 340000 M⁻¹ and 360000 M⁻¹ | N [20]: 0.91 and 0.97 | Ka [21]: 290000 M⁻¹ | N [21]: 1.05
